Laboratory results published in patent US8993556B2, “Resorcinol derivatives as HSP90 inhibitors” (priority 2009, dated 2015).
Where two headings read alike, the source gives them in different places.

Experiments:
[1] = in vivo; conditions: Mouse Balb Nu/Nu, single; for clearance / half-life / Vd: 10 mg/kg IV bolus; for clearance: read-out: CL (mL/h/kg) Plasma clearance (converted); for half-life: read-out: T1/2 (h) Terminal half-life (converted); for Vd: read-out: Vdss (mL/kg) Volume of distribution at steady state; for bioavailability: 10 mg/kg oral vs 10 mg/kg IV, read-out: F % Oral bioavailability
Experimental: Calibration Standards and Quality Controls were prepared spiking blank mouse plasma with appropriate working solutions.
Sample plasma proteins were precipitated by adding 160 μL of acetonitrile/methanol 90/10 to 20 μL of mouse plasma in a 96 well plate.
After heat sealing and mixing for 3 minutes, the plate was centrifuged for 15 minutes at 4000 rpm.
The supernatant was considered as final extract and injected onto the LC-MS-MS system.
• UPLC system: Waters Acquity BSM • Mobile phase A: 95:5-5 mM Ammonium Formate pH3.5: Acetonitrile • Mobile phase B: 5:95-5 mM Ammonium Formate pH3.5: Acetonitrile • Analytical column: BEH C18 50×2.1 1.7 μm • Elution conditions:
• Total Run Time: 2.0 min. • Flow rate: 0.500 mL/min • Approximate retention time: NMS-03308086: 0.67 min. • Column oven temp: 40° C. • Autosampler type: Waters Acquity SM • Injection volume: 3 μL • Injection mode: Partial Loop with Needle Overfill • Autosampler temperature: 5° C. • MS instrument: Waters TQD • Ionisation: ES+ • Capillary: 1.5 kV • Cone: 70 V • Source Temperature: 150° C. • Desolvation Flow and Temp.: 900 L/h-400° C. • Collision Gas Flow: 0.2 mL/min • Collision Energy: 40 • MRM transitions: NMS-03308086: m/z 579.1>m/z 97.0 • Dwell Time: 0.1 seconds • LLOQ: 5.0 ng/mL • ULOQ: 5000 ng/mL • Software used: Mass Lynx 4.1 SCN627

[2] = molecular target: His-HSP90 N-term domain; assay: Determination of KD Via Biacore; assay type: binding; conditions: Biacore T100
Experimental: The evaluation of the binding affinity (KD) of the compounds of formula (I) to the HSP90 protein was done using Biacore T100.
His-HSP90 N-term domain was immobilized by capture of his tag by the Ab previously covalently bound to the chip (CM5) surface.
The compounds were analyzed using the following running buffer: 20 mM Tris/HCl pH 7.6, 150 mM KCl, 5 mM MgCl2, 0.05% P20 and 1% DMSO. The flow rate was 50 ul/min with and association time of 60 seconds.
The cpds were diluted in running buffer from 100× stock solution; the different conc injected were obtained from a sequential dilution in order to have the same DMSO conc. in each sample and avoid any solvent correction.

[3] = system: Her2 protein levels in BT474 breast cancer cells; assay: Her2 Degradation Assay; assay type: cell-based; conditions: Homo sapiens
Experimental: The potencies of the compounds of the present invention were evaluated by measuring the Her2 degradation as a marker for HSP90 inhibition.
HSP90 is a key component of a chaperone machinery that catalyzes the folding and quality control of several proteins. Its inhibition impairs the capacity to fold or stabilize its client proteins, leading to the proteosomal dependent degradation of these unfolded proteins. […] Cellular activity of HSP90 inhibitors was assessed by measuring the induced loss of Her2 protein levels in BT474 breast cancer cells (ATCC #HTB-20). Cellular Her2 levels were measured by immunocytochemistry, and quantified using an ArrayScan vTi instrument (Cellomics Thermo Scientific).
Cellular activity of HSP90 inhibitors was assessed by measuring the induced loss of Her2 protein levels in BT474 breast cancer cells (ATCC #HTB-20). Cellular Her2 levels were measured by immunocytochemistry, and quantified using an ArrayScan vTi instrument (Cellomics Thermo Scientific).
Studies were performed as follows: 5000 cells/well are seeded in 96 well plates (Perkin Elmer) in DMEM/5% FCS and incubated for 48 hours at 37° C., 5% CO2.
Medium is then replaced with fresh medium containing test compounds at the required concentration. Concentration curves are prepared in DMEM/10% FCS from compound stocks in DMSO, and final DMSO concentration is 0.1% (v/v). Duplicate wells for each concentration point are prepared, with a typical highest compound concentration of 30 μM. […] Plates are incubated for 20 minutes at room temperature, then wells are washed in PBS and cells permiabilised by incubating with PBS containing 0.3% Triton X-100 for 15 minutes at room temperature. Non-specific binding sites are blocked by incubating wells for 1 hour in PBS containing 3% (w/v) BSA. Wells are then incubated for 1 hour at room temperature in PBS containing anti Her2 mouse monoclonal (Anti-c-ErbB2/c-Neu, Mouse mAb 3B5, Calbiochem Cat N^o OP15) diluted 1:100 in 1% (w/v) BSA. […] After washing a further 3 times in PBS, cellular Her2 immunoreactivity is assessed using the ArrayScan vTi instrument, with a Zeiss 10× 0.5 N.A. objective, and applying the Cytotoxity.V3 algorithm (Cellomics/Thermo Fisher) with a XF100 filter. At least 10 fields, corresponding to at least 900 cells, are read for each well.
IC50 is the response; IC50 starts at Bottom and goes to Top with a sigmoid shape. In Vitro Cell Proliferation Assay

[4] = system: A2780 human ovarian cells; assay: In Vitro Cell Proliferation Assay; assay type: cell-based
Experimental: The cells were incubated at 37° C. and 5% CO2 and after 72 hours the plates were processed using CellTiter-Glo assay (Promega) following the manufacturer's instruction.
CellTiter-Glo is a homogenous method based on the quantification of the ATP present, an indicator of metabolically active cells. ATP is quantified using a system based on luciferase and D-luciferin resulting into light generation. The luminescent signal is proportional to the number of cells present in culture.
Briefly 25 μL/well reagent solution are added to each wells and after 5 minutes shacking microplates are red by a luminometer. The luminescent signal is proportional to the number of cells present in culture.

[5] = system: human ovarian carcinoma cell line A2780 transplanted in immunodeficient mice; assay: In Vivo Antitumor Efficacy; parameters: species or system mouse; conditions: for TGI: A2780 in athymic mice
Experimental: Antitumor activity of HSP90 inhibitors was assessed in vivo using the human ovarian carcinoma cell line A2780 transplanted in immunodeficient mice.
Balb Nu/Nu, male mice, (athymic mice) from Harlan, Italy, were maintained in cages with paper filter covers, food and bedding sterilized and water acidified. A2780 tumors were maintained in vivo by serial transplantation and, at the time of efficacy experiments, implanted subcutaneously in athymic mice. The treatments started 8 days later when the tumors were palpable. HSP90 inhibitors were prepared immediately before use and administered intravenously in a volume of 10 ml/kg at different doses.
Tumor growth was assessed by caliper. The two diameters were recorded, and the tumor weight was calculated according to the following formula: length (mm)×width^2 (mm)/2. The effect of the antitumor treatment was determined as tumor growth inhibition (TGI %) of treated group respect to vehicle treated controls.

[6] = BT-474, 8 h, read-out: Her2 Degradation IC50 (μM)
[7] = Homo sapiens, A2780, 72 h, read-out: A2780 Proliferation IC50 (μM)
[8] = BT-474, BT474 breast cancer cells, 8 hours, read-out: Her2 Degradation IC50
[9] = A2780 human ovarian cells, 72 hours, CellTiter-Glo, read-out: A2780 Proliferation IC50

Structure (SMILES)	clearance [1] [mL/h/kg]	half-life [1] [h]	Vd [1] [mL/kg]	bioavailability [1] [%]	Kd [2] [nM]	IC50 [3, 6] [µM]	IC50 [4, 7] [µM]	IC50 [3, 8] [µM]	also measured
CN(C)c1ccc(Oc2cc(O)cc(O)c2-c2cc(C(=O)NC3CCN(C4CCC5(CC4)OCCO5)CC3)no2)cc1	1760	5.46	4940	36					
CN1CCC(NC(=O)c2cc(-c3c(O)cc(O)cc3Oc3ccc([N+](=O)[O-])cc3)no2)CC1 [3-[2,4-Dihydroxy-6-(4-nitrophenoxy)phenyl]-N-(1-methylpiperidin-4-yl)isoxazole-5-carboxamide]	3420	1.52	4470	7	0.24	0.022	0.02		
CN(C)c1ccc(Oc2cc(O)cc(O)c2-c2cc(C(=O)NC3CCN(C4CCC5(CC4)OCCO5)CC3)on2)cc1 [3-{2-[4-(Dimethylamino)phenoxy]-4,6-dihydroxyphenyl}-N-[1-(1,4-dioxaspiro[4.5]dec-8-yl)piperidin-4-yl]isoxazole-5-carboxamide]	1910	7.23	9120	23	0.043			0.003	IC50 [4, 9]: 0.02 µM
CC(C)N1CCC(NC(=O)c2cc(-c3c(O)cc(O)cc3Oc3ccc([N+](=O)[O-])cc3)on2)CC1 [5-[2,4-Dihydroxy-6-(4-nitrophenoxy)phenyl]-N-[1-(propan-2-yl)piperidin-4-yl]isoxazole-3-carboxamide]						0.058			
CCNC(=O)c1cc(-c2c(O)cc(O)cc2Oc2ccc([N+](=O)[O-])cc2)on1 [5-[2,4-Dihydroxy-6-(4-nitrophenoxy)phenyl]-N-ethyl isoxazole-3-carboxamide]						0.059	0.07		
CN1CCC(NC(=O)c2cc(-c3c(O)cc(O)cc3Oc3ccc([N+](=O)[O-])cc3)on2)CC1 [5-[2,4-dihydroxy-6-(4-nitrophenoxy)phenyl]-N-(1-methylpiperidin-4-yl)isoxazole-3-carboxamide]								0.11	TGI ([5]; 30 mg/kg for 10 consecutive days, intravenously): 53%; TGI ([5]; 60 mg/kg for 10 consecutive days, intravenously): 74%; signs of toxicities ([5]; 30 and 60 mg/kg for 10 consecutive days, athymic mice): without signs of toxicities; IC50 [4, 9]: 0.06 µM
CCNC(=O)c1cc(-c2c(O)cc(O)cc2Oc2ccc(C#N)cc2)on1 [5-[2-(4-Cyanophenoxy)-4,6-dihydroxyphenyl]-N-ethylisoxazole-3-carboxamide]								0.277	
CCNC(=O)c1cc(-c2c(O)cc(O)cc2Oc2ccc(Cl)cc2)on1 [5-[2-(4-chlorophenoxy)-4,6-dihydroxyphenyl]-N-ethylisoxazole-3-carboxamide]						0.059			
CN1CCC(NC(=O)c2cc(-c3c(O)cc(O)cc3Oc3ccc(N(C)C)cc3)on2)CC1 [5-{2-[4-(Dimethylamino)phenoxy]-4,6-dihydroxyphenyl}-N-(1-methylpiperidin-4-yl)isoxazole-3-carboxamide]								0.039	TGI ([5]; intravenously at 40 mg/Kg daily): 77%
CN(C)c1ccc(Oc2cc(O)cc(O)c2-c2cc(C(=O)NC3CCN(C4CCC5(CC4)OCC(C)(C)CO5)CC3)no2)cc1 [5-{2-[4-(Dimethylamino)phenoxy]-4,6-dihydroxyphenyl}-N-[1-(3,3-dimethyl-1,5-dioxaspiro[5.5]undec-9-yl)piperidin-4-yl]isoxazole-3-carboxamide]	1340	6.71	6000	19	0.08			0.037	IC50 [4, 9]: 0.035 µM
CN(C)c1ccc(Oc2cc(O)cc(O)c2-c2cc(C(=O)NC3CCN(C4CCC5(CC4)OCCCCO5)CC3)no2)cc1 [5-{2-[4-(Dimethylamino)phenoxy]-4,6-dihydroxyphenyl}-N-[1-(7,12-dioxaspiro[5.6]dodec-3-yl)piperidin-4-yl]isoxazole-3-carboxamide]	1310	6.87	5980	14	0.423			0.045	IC50 [4, 9]: 0.023 µM
CN(C)c1ccc(Oc2cc(O)cc(O)c2-c2cc(C(=O)NC3CCN(C4CCCCC4)CC3)no2)cc1 [N-(1-Cyclohexylpiperidin-4-yl)-5-{2-[4-(dimethylamino)phenoxy]-4,6-dihydroxyphenyl}isoxazole-3-carboxamide]						0.003			
O=C(NC1CCN(C2CCC(F)(F)CC2)CC1)c1cc(-c2c(O)cc(O)cc2Oc2ccc([N+](=O)[O-])cc2)on1 [N-[1-(4,4-Difluorocyclohexyl)piperidin-4-yl]-5-[2,4-dihydroxy-6-(4-nitrophenoxy)phenyl]isoxazole-3-carboxamide]					0.8	0.027	0.05		
CN(C)c1ccc(Oc2cc(O)cc(O)c2-c2cc(C(=O)NC3CCN(C4CCC(F)(F)CC4)CC3)no2)cc1 [N-[1-(4,4-Difluorocyclohexyl)piperidin-4-yl]-5-{2-[4-(dimethylamino)phenoxy]-4,6-dihydroxyphenyl}isoxazole-3-carboxamide]					0.057	0.002	0.02		
CN(C)c1ccc(Oc2cc(O)cc(O)c2-c2cc(C(=O)NC3CCN(CC4CCCCC4)CC3)no2)cc1 [N-[1-(Cyclohexylmethyl)piperidin-4-yl]-5-{2-[4-(dimethylamino)phenoxy]-4,6-dihydroxyphenyl}isoxazole-3-carboxamide]					0.188	0.02	0.01		
